Experimental data as given in US20180104174A1, “Cosmetic Use of a Diospyros Mespiliformis Extract Alone or in Combination with Other Active Agents Such as an Anti-Pollutant” (Laboratoires Clarins, priority 2015, published 2018).

What was measured:
Type in all cases: cell-based
[1] = test system: cell reactive oxygen species (ROSs) in normal human keratinocytes; test: Mitoread AntiOx cROS: cell ROS production after H2O2 stress
Source text: The objective of this study is the characterization of the antioxidant property of a Sanicula europea extract by evaluating the parameters of the redox state after induction of an oxidative stress by hydrogen peroxide (H2O2) in primary cultures of normal human keratinocytes. The Mitosafe® technology makes it possible to explore the antioxidant effects of active agents at the mitochondrial level. This technology consists of the integrated study of mitochondrial functions in living cells by multiplexed measurement of parameters such as cell viability, production of cell and mitochondrial oxygen free radicals, evaluation of antioxidant defenses. These tests in 96-well plates are carried out on primary cultures of human epidermal cells. The Mitoread AntiOx cROS methodology consists of the quantification of the antioxidant activity of the ingredients toward cell reactive oxygen species (ROSs) using a fluorescent label. […] After washing, the cells were co-incubated with the antioxidant reference compound, […] Trolox, or the extracts, at concentrations determined to be non-cytotoxic, in the presence of the pro-oxidizing reference compound, 100 μM H2O2. The cell ROS production was immediately recorded for 60 minutes. The fluorescence is recorded every five minutes using a microplate reader (Varioskan-Thermo). […]

[2] = test system: mitochondrial reactive oxygen species (ROSs) in normal human keratinocytes; test: Mitoread AntiOx mtROS: mitochondrial ROS production after H2O2 stress
Source text: The objective of this study is the characterization of the antioxidant property of a Sanicula europea extract by evaluating the parameters of the redox state after induction of an oxidative stress by hydrogen peroxide (H2O2) in primary cultures of normal human keratinocytes. The Mitosafe® technology makes it possible to explore the antioxidant effects of active agents at the mitochondrial level. This technology consists of the integrated study of mitochondrial functions in living cells by multiplexed measurement of parameters such as cell viability, production of cell and mitochondrial oxygen free radicals, evaluation of antioxidant defenses. These tests in 96-well plates are carried out on primary cultures of human epidermal cells. The Mitoread AntiOx mtROS methodology consists of the quantification of the antioxidant activity of the ingredients toward mitochondrial reactive oxygen species (ROSs) using a fluorescent label. The cells were pre-incubated at 37° C. for 60 minutes with the reference antioxidant, resveratrol 1 μM, or the active ingredients at the predetermined concentrations. Next, they were incubated with the fluorescent probe at 37° C. for 30 minutes, as a replacement for the antioxidant compounds. […] The mitochrondrial ROS production was immediately recorded for 60 minutes. The fluorescence is recorded every five minutes using a microplate reader (Varioskan-Thermo). […]

[3] = test system: total glutathione (GSH+GSSG) in normal human keratinocytes; test: Mitoread RedOx GSHtot: total glutathione level after H2O2 stress
Source text: (§1) The objective of this study is the characterization of the antioxidant property of a Sanicula europea extract by evaluating the parameters of the redox state after induction of an oxidative stress by hydrogen peroxide (H2O2) in primary cultures of normal human keratinocytes. The Mitosafe® technology makes it possible to explore the antioxidant effects of active agents at the mitochondrial level. This technology consists of the integrated study of mitochondrial functions in living cells by multiplexed measurement of parameters such as cell viability, production of cell and mitochondrial oxygen free radicals, evaluation of antioxidant defenses. These tests in 96-well plates are carried out on primary cultures of human epidermal cells. The Mitoread RedOx GSHtot methodology consists of the quantification of the total glutathione level (GSH+GSSG). The cells were pre-incubated at 37° C. for 60 minutes with the reference antioxidant, resveratrol 1 μM, or the extract at the predetermined concentrations. The cells were treated with the reference pro-oxidizing compound, hydrogen peroxide H2O2 at 100 μM, for 60 minutes. Immediately after, the cell extracts were prepared and stored at −80° C. The total glutathione level was measured by means of a fluorometric and enzymatic method using a microplate reader (Varioskan-Thermo). All the extracts were tested in triplicate.

[4] = test system: mitochondrial superoxide dismutase (SOD) in normal human keratinocytes; test: Mitoread RedOx c/mtSOD: mitochondrial SOD activity after H2O2 stress
Source text: as §1, with “Mitoread RedOx c/mtSOD methodology consists” for “Mitoread RedOx GSHtot methodology consists”, “of the cell and mitochondrial SOD activities. The cells” for “of the total glutathione level (GSH+GSSG). The cells”, “antioxidant, resveratrol at 1 μM,” for “antioxidant, resveratrol 1 μM,”, “or the active ingredients at the” for “or the extract at the”, “at 100 μM for 60” for “at 100 μM, for 60”, “C. The enzymatic activities were measured by” for “C. The total glutathione level was measured by”

[5] = test system: cell superoxide dismutase (SOD) in normal human keratinocytes; test: Mitoread RedOx c/mtSOD: cell SOD activity after H2O2 stress
Source text: as §1, with “Mitoread RedOx c/mtSOD methodology consists” for “Mitoread RedOx GSHtot methodology consists”, “of the cell and mitochondrial SOD activities. The cells” for “of the total glutathione level (GSH+GSSG). The cells”, “antioxidant, resveratrol at 1 μM,” for “antioxidant, resveratrol 1 μM,”, “or the active ingredients at the” for “or the extract at the”, “at 100 μM for 60” for “at 100 μM, for 60”, “C. The enzymatic activities were measured by” for “C. The total glutathione level was measured by”

`OO` [H2O2, hydrogen peroxide] was tested, and the “increase of the cell ROS production level compared with the nontreated cells” value ([1]; 100 μM H2O2) was 7.4 times, the “increase in mitochondrial production of ROSs relative to the nontreated cells (factor)” value ([2]; 100 μM H2O2) was 9.4 and the “increase in the total glutathione level compared with the nontreated cells” value ([3]; H2O2 at 100 μM, p=0.044) was about 2.9 times. The “increase in the mitochondrial SOD activity compared with the nontreated cells” value ([4]; H2O2 100 μM, p=0.006) was about 211% and the “decrease in the cell SOD activity compared with the nontreated cells” value ([5]; H2O2 100 μM, non-significant trend, p=0.075) was about 30%.
`Cc1c(C)c2c(c(C)c1O)CCC(C)(C(=O)O)O2` (stereo not shown) [Trolox] was tested, and the “reduction of the overproduction of cell ROSs induced by H2O2” value ([1]; Trolox at 10 μm, p<0.001) was 1.7 times.
In the case of `Oc1ccc(C=Cc2cc(O)cc(O)c2)cc1` [resveratrol], the “reduction of the overproduction of mitochondrial ROSs induced by H2O2” value ([2]; 1 μM, p=0.013) is reported as about 1.3 times, the “reduction of the total glutathione level after treatment with H2O2” value ([3]; pre-incubation at 1 μM, p=0.006) is reported as 94% and the “reduction of the activity of the mitochondrial SOD induced by H2O2” value ([4]; 1 μM, p=0.021) is reported as about 66%. For the same molecule, the “increase in the cell SOD activity in response to H2O2 exposure” value ([5]; 1 μM, p=0.036) was about 40%.
